In patent US20090074766A1, “Methods of inhibiting HIV-2 infection” (priority 2007, published 2009):
Read-outs that look alike come from different tables or passages of the source.

B1: PRO 140: humanized IgG4,κ anti-CCR5 monoclonal antibody, humanized version of murine mAb PA14 (antibody, chains of the INN, looked up, V domains shown)
VH: EVQLVESGGGLVKPGGSLRLSCAASGYTFSNYWIGWVRQAPGKGLEWIGDIYPGGNYIRNNEKFKDKTTLSADTSKNTAYLQMNSLKTEDTAVYYCGSSFGSNYVFAWFTYWGQGTLVTVSS
VL: DIVMTQSPLSLPVTPGEPASISCRSSQRLLSSYGHTYLHWYLQKPGQSPQLLIYEVSNRFSGVPDRFSGSGSGTDFTLKISRVEAEDVGVYYCSQSTHVPLTFGQGTKVEIK

Key:
[1] = tested on: reporter viruses pseudotyped with HIV-1SF162 envelope; type: cell-based; parameters: CI90: unit not given beside the values; conditions: for IC50 / IC90: 1st inhibitor alone, HIV-1 envelope SF162; for CI90 / CI50: envelope SF162
Description: A self-inactivating (SIN) vector was derived from the pNL4-3ΔEnv-luciferase vector (Dragic et al. 1996) by deleting 507 basepairs in the U3 region of the 3′ long terminal repeat (LTR) so as to remove the TATA box and transcription factor binding sites. The human cytomegalovirus promoter was inserted upstream of the luciferase (luc) gene to enable expression of luciferase following integration.
Reporter viruses pseudotyped with HIV-1JR-FL or HIV-1SF162 envelopes were generated by cotransfection of 293T cells with the SIN vector and the appropriate pcDNA env-expressing vector as previously described (Dragic et al. 1996). […] Cultures were incubated for 72 h at 37° C. in DMEM containing 10% fetal bovine serum, 1 mg/mL puromycin, 0.3 mg/mL geneticin, antibiotics, and 0.5% DMSO. Luciferase activity (relative light units or RLU) was measured using BrightGlo reagent (Promega, Madison, Wis.) according to the manufacturer's instructions. Percent inhibition was calculated as: (1−RLU in the presence of inhibitor/RLU in the absence of inhibitor)×100.
Experimental design and data analysis were based on the combination index (CI) method (Chou et al. 1991; Chou et al. 1984). Compounds were tested individually and in combination at a fixed molar ratio over a range of serial dilutions. […] The mutually exclusive CI formula was used for combinations of CCR5 inhibitors, while the mutually non-exclusive formula was utilized for combinations of inhibitors to distinct targets (Chou et al. 1991). Each test was conducted 4-12 times. Synergy, additivity and antagonism are indicated by CI<1, CI=1 and CI>1, respectively.

[2] = tested on: reporter viruses pseudotyped with HIV-1JR-FL envelope; type: cell-based; parameters: CI90: unit not given beside the values; conditions: for IC50 / IC90: 1st inhibitor alone, HIV-1 envelope JRFL; for CI90 / CI50: envelope JRFL
Description: HIV-1 pseudoparticles (HIV-1pp) are generated in 293T cells by transient coexpression of an HIV-1-based NL4/3luc+env− plasmid and a construct encoding HIV-1JRFL Env. The NL4/3luc+env− plasmid was obtained from the NIH AIDS Research and Reference Reagent Program (Cat. No. 3418), and the HIV-1JRFL Env was inserted into the pcDNA3.1 vector (Invitrogen). Briefly, 293T cells are calcium phosphate transfected with a 1:1 ratio of NL4/3luc+env− reporter vector and Env expression vector in Hepes buffer (Profection Mammalian Transfection Kit, Promega). After 16 h the transfection medium is aspirated and fresh cell culture medium (DMEM with 10% FBS, glutamine and antibiotics) is added and the incubation is continued at 37° C. for an additional 24-32 h. Cell culture supernatants are collected 48 h post-transfection and centrifuged at 1,400 rpm for 10 min to pellet cell debris. The viral supernatant is brought to a final concentration of 5% sucrose and stored aliquoted at −80° C.
U87-CD4-CCR5 cells were obtained from the NIH AIDS Research and Reference Program (Cat. No. 4035). These cells are maintained in culture medium (DMEM with 10% FBS, antibiotics and glutamine) containing 0.3 mg/ml G418 and 0.5 mg/ml puromycin. Cells are grown in T175-cm^2 flasks at 37° C. and diluted 1:5 every 3-4 days. For assay plate preparation, cells are trypsinized and seeded into wells of 96-well tissue-culture treated flat bottom opaque polystyrene plates (Perkin Elmer, Boston, Mass.) at a density of 3×10^3 cells/well. Plates are incubated for no more than 4 h at 37° C. in a humidified 5% CO2 incubator prior to their use in the HIV-1 pp susceptibility assay.
Fifty μl of diluted compound at 4× the desired final concentration are added per well. For compounds solubilized in DMSO, the 4× stock will contain 2% DMSO (such that the final DMSO concentration in the assay is always 0.5% for small molecules). Control wells receiving no compound are included on each plate. In addition, an AZT inhibition control is included in each assay. Compounds are tested individually and at a fixed mass or molar ratio over a broad range of concentrations.
A vial of frozen, aliquoted HIV-1pp is thawed in a 37° C. waterbath and then placed on wet ice. Virus is diluted in cold cell culture medium as necessary to achieve the desired final virus concentration in the HIV-1pp assay (about 10,000 relative light units (rlu) per well). 50 μl of diluted virus are added per well, bringing the final well volume to 200 μl. A no-virus control (minimum or background luminescence) and a no-compound control (maximum luminescence) are included on each plate. The plates are incubated for 72 h at 37° C. in a humidified 5% CO2 incubator followed by processing for luciferase signal (see below).
Assay medium is aspirated and 200 μl of PBS are added to each well. […] Assay plates are then frozen for at least 2 h at −80° C. followed by thawing at room temperature and vigorous mixing with an electronic pipettor. 25 μl from each well are transferred to an opaque 96-well plate (Costar #3922). Four replicates are pooled into the same well on the opaque plate. 100 μl of freshly thawed and reconstituted luciferase substrate (Luciferase Assay System, Promega—Cat. No. E1501) are added to each well of the plate with the electronic pipettor, and luminescence is detected immediately on a Dynex MLX plate reader set to medium gain.
The percent inhibition is derived as follows: [1−(luciferase activity in the presence of drug/luciferase activity in the absence of drug)]×100. IC50 values are determined by fitting the inhibition data with a non-linear, four-parameter, variable slope equation (GraphPad Prism, ver. 4.02; GraphPad Software, San Diego, Calif.). Upper and lower inhibition values are constrained to 100% and 0%, respectively for curve fitting. […]

[3] = labelled 1st inhibitor with 2nd inhibitor SCH-D
[4] = labelled 1st inhibitor with 2nd inhibitor PRO 140, equimolar (1:10 PRO 140 to zidovudine or nevirapine)

Molecule	IC50 [1] [nM]	IC90 [1] [nM]	CI90 [1, 3]	IC50 [2] [nM]	IC90 [2] [nM]	CI90 [2, 3]	IC50 ([1]; read-out: IC50) [nM]	IC90 ([1]; read-out: IC90) [nM]	IC90 ([2]; read-out: IC90) [nM]	CI50 [1, 4]	CI90 [1, 4]	CI50 [2, 4]	CI90 [2, 4]	IC50 ([2]; read-out: IC50) [nM]
Cc1nnc(C(C)C)n1C1CC2CCC(C1)N2CC[C@H](NC(=O)C1CCC(F)(F)CC1)c1ccccc1 (stereo partly drawn) [UK-427,857]	0.87	13	0.86 ± 0.28	7.4	46	1.2 ± 0.15								
COC[C@@H](c1ccc(C(F)(F)F)cc1)N1CCN(C2(C)CCN(C(=O)c3c(C)ncnc3C)CC2)C[C@@H]1C [SCH-D, 1-[(4,6-dimethyl-5-pyrimidinyl)carbonyl]-4-[4-[2-methoxy-1(R)-4-(trifluoromethyl)phenyl]ethyl-3(S)-methyl-1-piperazinyl]-4-methylpiperidine]							0.34	14	44					
COc1ccnc2[nH]cc(C(=O)C(=O)N3CCN(C(=O)c4ccccc4)C[C@H]3C)c12 [BMS-378806, (R)-N-(benzoyl)-3-methyl-N′-[(4-methoxy-7-azaindol-3-yl)-oxoacetyl]-piperazine]										1.1 ± 0.28	0.82 ± 0.21	1.2 ± 0.38	0.74 ± 0.23	
B1							1.3	20	28	1.0 ± 0.27	0.86 ± 0.33	1.2 ± 0.32	0.90 ± 0.15	2.2
